{"source": "ChEMBL document CHEMBL4118135", "about": "“Optimized allosteric inhibition of engineered protein tyrosine phosphatases with an expanded palette of biarsenical small molecules” (Bioorg Med Chem, 2018)", "key": {"[1]": {"test_system": "T1, Tyrosine-protein phosphatase non-receptor type 1 (Homo sapiens), P18031 [P87C,A122C]", "T1 sequence (whole entry)": "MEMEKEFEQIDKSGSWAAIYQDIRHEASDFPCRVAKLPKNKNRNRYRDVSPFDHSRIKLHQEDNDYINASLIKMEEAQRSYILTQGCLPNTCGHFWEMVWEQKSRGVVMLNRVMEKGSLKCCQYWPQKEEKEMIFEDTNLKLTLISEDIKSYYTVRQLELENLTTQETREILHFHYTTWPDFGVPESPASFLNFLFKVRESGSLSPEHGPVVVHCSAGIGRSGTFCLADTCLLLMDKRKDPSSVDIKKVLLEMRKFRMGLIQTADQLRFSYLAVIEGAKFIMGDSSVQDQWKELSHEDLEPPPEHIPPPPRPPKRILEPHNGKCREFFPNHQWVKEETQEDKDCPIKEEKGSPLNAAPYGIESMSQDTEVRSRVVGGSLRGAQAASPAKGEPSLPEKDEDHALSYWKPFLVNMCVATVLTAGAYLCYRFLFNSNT", "assay": "Inhibition of allosterically sensitized His6-tagged human PTP1B catalytic domain P87C/A122C mutant at 250 nM using pNPP as substrate incubated for 90 mins by quenched phosphatase activity assay"}, "[2]": {"test_system": "T2, Tyrosine-protein phosphatase non-receptor type 7 (Homo sapiens), P35236 [P171C,V205C]", "T2 sequence (whole entry)": "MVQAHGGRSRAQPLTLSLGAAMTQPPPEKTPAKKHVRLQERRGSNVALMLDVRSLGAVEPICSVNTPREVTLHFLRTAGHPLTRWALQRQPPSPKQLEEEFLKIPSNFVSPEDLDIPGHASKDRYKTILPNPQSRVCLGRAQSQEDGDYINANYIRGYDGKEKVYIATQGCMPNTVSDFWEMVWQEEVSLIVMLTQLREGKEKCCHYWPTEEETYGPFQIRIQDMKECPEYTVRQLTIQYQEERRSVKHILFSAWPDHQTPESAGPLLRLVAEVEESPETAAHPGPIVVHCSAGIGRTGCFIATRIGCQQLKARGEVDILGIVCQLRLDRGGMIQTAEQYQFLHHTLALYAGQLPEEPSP", "assay": "Inhibition of allosterically sensitized mutant form of His6-tagged human HePTP catalytic domain at 500 nM using pNPP as substrate incubated for 90 mins by quenched phosphatase activity assay"}, "[3]": {"species": "Homo sapiens", "assay": "Inhibition of His6-tagged human wild-type PTP catalytic domain at 500 nM using pNPP as substrate incubated for 90 mins by quenched phosphatase activity assay"}, "[4]": {"biological_target": "T3, Tyrosine-protein phosphatase non-receptor type 7 (Homo sapiens) (UniProt P35236)", "T3 sequence (whole entry)": "T2 sequence (whole entry) with C171P, C205V", "assay": "Inhibition of His6-tagged human wild-type HePTP catalytic domain at 1 uM using pNPP as substrate incubated for 90 mins by quenched phosphatase activity assay"}, "[5]": {"biological_target": "T3, Tyrosine-protein phosphatase non-receptor type 7 (Homo sapiens)", "assay": "Inhibition of His6-tagged human wild-type HePTP catalytic domain overexpressed in Escherichia coli crude cell lysate at 2000 nM using pNPP as substrate incubated for 90 mins by quenched phosphatase activity assay"}, "[6]": {"biological_target": "T3, Tyrosine-protein phosphatase non-receptor type 7 (Homo sapiens)", "assay": "Inhibition of His6-tagged human wild-type HePTP catalytic domain overexpressed in Escherichia coli BL21(DE3) cells at 100 uM using pNPP as substrate incubated for 90 mins by quenched phosphatase activity assay"}, "[7]": {"biological_target": "Tyrosine-protein phosphatase non-receptor type 6 (Homo sapiens) (UniProt P29350)", "sequence (P29350 whole entry, the tested form may be a part)": "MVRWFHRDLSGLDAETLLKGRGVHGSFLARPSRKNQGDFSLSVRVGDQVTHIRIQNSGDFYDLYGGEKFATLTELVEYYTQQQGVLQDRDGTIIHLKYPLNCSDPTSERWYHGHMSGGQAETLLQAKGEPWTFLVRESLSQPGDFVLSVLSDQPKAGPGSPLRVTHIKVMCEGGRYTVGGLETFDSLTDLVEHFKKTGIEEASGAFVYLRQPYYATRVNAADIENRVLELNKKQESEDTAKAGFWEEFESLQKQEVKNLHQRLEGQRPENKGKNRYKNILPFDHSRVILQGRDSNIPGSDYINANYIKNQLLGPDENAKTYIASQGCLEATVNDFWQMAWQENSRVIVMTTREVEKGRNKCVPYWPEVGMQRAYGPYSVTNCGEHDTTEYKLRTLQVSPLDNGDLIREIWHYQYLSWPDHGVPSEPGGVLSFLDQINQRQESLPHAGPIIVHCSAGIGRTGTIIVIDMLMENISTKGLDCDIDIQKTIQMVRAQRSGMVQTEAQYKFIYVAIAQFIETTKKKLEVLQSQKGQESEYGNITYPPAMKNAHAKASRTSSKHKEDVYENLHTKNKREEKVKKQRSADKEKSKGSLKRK", "assay": "Inhibition of allosterically sensitized mutant form of His6-tagged human SHP1 catalytic domain at 500 nM using pNPP as substrate incubated for 90 mins by quenched phosphatase activity assay"}, "[8]": {"biological_target": "T4, Tyrosine-protein phosphatase non-receptor type 11 (Homo sapiens) (UniProt Q06124)", "T4 sequence (whole entry)": "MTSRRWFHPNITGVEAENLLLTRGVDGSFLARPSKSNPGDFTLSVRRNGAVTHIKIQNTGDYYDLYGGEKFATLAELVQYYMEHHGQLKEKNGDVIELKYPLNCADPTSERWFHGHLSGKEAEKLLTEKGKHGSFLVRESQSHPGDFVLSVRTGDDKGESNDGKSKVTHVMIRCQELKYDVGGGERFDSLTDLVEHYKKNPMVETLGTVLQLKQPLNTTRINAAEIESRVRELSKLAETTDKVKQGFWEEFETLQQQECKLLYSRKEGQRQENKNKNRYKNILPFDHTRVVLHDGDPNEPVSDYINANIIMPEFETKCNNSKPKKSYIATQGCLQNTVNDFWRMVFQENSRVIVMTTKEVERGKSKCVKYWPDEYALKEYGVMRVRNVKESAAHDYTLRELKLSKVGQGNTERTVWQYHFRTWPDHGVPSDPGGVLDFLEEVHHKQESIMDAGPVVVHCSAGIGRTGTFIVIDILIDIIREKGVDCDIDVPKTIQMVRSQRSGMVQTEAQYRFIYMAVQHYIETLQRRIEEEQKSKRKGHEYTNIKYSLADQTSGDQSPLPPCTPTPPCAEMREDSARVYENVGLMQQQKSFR", "assay": "Inhibition of allosterically sensitized mutant form of His6-tagged human SHP2 catalytic domain at 500 nM at 500 nM using pNPP as substrate incubated for 90 mins by quenched phosphatase activity assay"}, "[9]": {"biological_target": "Tyrosine-protein phosphatase non-receptor type 13 (Homo sapiens) (UniProt Q12923)", "sequence (Q12923 whole entry, the tested form may be a part)": "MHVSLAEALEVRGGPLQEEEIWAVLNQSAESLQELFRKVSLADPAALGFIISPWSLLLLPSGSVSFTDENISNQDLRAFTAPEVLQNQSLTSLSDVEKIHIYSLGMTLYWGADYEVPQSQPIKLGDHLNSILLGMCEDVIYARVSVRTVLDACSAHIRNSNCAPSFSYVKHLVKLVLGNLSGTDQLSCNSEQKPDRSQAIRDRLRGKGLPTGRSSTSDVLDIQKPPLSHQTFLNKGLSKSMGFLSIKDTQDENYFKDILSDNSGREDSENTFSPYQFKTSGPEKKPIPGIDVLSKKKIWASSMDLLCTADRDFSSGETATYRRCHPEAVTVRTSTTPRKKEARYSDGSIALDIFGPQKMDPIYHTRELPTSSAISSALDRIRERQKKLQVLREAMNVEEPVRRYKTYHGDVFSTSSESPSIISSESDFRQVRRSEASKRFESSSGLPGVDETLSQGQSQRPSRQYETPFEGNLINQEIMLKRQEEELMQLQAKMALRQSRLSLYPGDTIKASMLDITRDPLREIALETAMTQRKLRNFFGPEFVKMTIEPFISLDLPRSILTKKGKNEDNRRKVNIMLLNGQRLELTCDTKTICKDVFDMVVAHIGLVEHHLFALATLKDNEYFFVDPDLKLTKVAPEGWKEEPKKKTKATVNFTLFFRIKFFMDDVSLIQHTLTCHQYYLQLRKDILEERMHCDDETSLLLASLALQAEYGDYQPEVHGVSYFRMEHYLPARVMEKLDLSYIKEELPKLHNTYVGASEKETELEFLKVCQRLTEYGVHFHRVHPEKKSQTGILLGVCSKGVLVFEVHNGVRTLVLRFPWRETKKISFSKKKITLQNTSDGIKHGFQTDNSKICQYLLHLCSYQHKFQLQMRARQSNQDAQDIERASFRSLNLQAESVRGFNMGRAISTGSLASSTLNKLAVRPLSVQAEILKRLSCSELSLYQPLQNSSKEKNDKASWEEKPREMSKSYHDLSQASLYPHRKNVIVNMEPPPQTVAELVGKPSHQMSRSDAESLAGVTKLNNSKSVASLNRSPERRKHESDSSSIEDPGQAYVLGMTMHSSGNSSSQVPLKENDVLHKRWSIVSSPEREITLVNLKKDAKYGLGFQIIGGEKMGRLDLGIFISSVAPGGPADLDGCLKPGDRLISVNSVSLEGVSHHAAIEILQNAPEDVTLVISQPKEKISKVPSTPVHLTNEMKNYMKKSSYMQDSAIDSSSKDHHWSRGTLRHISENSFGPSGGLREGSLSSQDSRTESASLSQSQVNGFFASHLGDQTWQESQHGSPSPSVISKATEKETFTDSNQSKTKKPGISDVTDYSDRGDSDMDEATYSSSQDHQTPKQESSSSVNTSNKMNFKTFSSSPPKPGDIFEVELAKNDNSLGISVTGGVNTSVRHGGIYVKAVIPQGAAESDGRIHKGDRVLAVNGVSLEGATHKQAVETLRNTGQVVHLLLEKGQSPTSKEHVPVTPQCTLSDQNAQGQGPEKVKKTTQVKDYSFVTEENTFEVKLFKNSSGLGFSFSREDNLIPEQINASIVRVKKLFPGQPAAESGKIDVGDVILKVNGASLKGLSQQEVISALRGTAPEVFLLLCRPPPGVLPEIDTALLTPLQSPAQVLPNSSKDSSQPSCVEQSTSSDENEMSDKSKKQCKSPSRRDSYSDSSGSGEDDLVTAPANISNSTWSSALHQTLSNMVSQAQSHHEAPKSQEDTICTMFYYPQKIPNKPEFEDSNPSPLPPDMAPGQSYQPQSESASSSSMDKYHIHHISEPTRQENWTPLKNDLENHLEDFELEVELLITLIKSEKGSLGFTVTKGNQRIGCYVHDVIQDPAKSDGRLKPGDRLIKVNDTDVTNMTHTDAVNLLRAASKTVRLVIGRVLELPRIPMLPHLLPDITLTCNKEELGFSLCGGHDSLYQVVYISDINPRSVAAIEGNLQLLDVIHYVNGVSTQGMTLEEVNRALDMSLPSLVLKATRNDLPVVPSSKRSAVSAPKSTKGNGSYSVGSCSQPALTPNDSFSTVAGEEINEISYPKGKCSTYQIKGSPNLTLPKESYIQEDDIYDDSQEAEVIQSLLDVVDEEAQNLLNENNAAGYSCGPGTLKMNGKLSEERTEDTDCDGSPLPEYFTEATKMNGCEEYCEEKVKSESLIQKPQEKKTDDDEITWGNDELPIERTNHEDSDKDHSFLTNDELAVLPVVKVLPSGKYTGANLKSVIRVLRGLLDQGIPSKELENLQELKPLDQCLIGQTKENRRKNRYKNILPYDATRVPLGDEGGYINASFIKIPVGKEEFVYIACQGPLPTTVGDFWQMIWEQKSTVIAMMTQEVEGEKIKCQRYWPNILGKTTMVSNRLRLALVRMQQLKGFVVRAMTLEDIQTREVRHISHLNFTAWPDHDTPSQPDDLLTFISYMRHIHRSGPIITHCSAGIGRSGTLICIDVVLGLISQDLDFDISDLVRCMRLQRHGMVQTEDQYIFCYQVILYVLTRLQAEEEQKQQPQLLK", "assay": "Inhibition of allosterically sensitized mutant form of His6-tagged human FAP1 catalytic domain at 500 nM using pNPP as substrate incubated for 90 mins by quenched phosphatase activity assay"}, "[10]": {"biological_target": "T4, Tyrosine-protein phosphatase non-receptor type 11 (Homo sapiens)", "assay": "Inhibition of allosterically sensitized mutant form of His6-tagged human SHP2 containing SHP1 and […] SH2 domain at 500 nM at 500 nM using pNPP as substrate incubated for 90 mins by quenched phosphatase activity assay"}, "[11]": {"test_system": "T1, Tyrosine-protein phosphatase non-receptor type 1 (Homo sapiens), P18031 [P87C,A122C]", "assay": "Inhibition of allosterically sensitized His6-tagged human PTP1B catalytic domain P87C/A122C mutant overexpressed in Escherichia coli BL21(DE3) cells using pNPP as substrate incubated for 90 mins by quenched phosphatase activity assay"}, "[12]": {"test_system": "T1, Tyrosine-protein phosphatase non-receptor type 1 (Homo sapiens), P18031 [P87C,A122C]", "assay": "Binding affinity to allosterically sensitized His6-tagged human PTP1B catalytic domain P87C/A122C mutant overexpressed in Escherichia coli BL21(DE3) cells at 25 to 100 uM after 90 mins by SDS-PAGE and LC-MS/MS method"}}, "note": "Substitutions are numbered along the chain they refer to. Activity calls are given as the source filed them. No cut-off for these calls is given here.", "data": [{"smiles": "O=C(O)c1ccccc1-c1c2ccc(=O)c([As]3SCCS3)c-2oc2c([As]3SCCS3)c(O)ccc12", "values": [{"measurement": "inhibition", "setting": "[1]", "result": "Active"}, {"measurement": "inhibition", "setting": "[2]", "result": "Active"}, {"measurement": "inhibition", "setting": "[3]", "result": "Active"}, {"measurement": "inhibition", "setting": "[4]", "result": "inactive"}, {"measurement": "inhibition", "setting": "[5]", "result": "inactive"}, {"measurement": "inhibition", "setting": "[6]", "result": "inactive"}, {"measurement": "inhibition", "setting": "[7]", "result": "Active"}, {"measurement": "inhibition", "setting": "[8]", "result": "Active"}, {"measurement": "inhibition", "setting": "[9]", "result": "Active"}, {"measurement": "inhibition", "setting": "[10]", "result": "Active"}]}, {"smiles": "CC1(C)C(/C=C/C=C2/N(CCCCS(=O)(=O)O)c3ccc([As]4SCCS4)cc3C2(C)C)=[N+](CCCCS(=O)(=O)O)c2ccc([As]3SCCS3)cc21", "values": [{"measurement": "inhibition", "setting": "[1]", "result": 70, "unit": "%"}, {"measurement": "inhibition", "setting": "[11]", "result": "Dose-dependent effect"}, {"measurement": "Activity", "setting": "[12]", "result": "Active"}, {"measurement": "inhibition", "setting": "[2]", "result": "inactive"}, {"measurement": "inhibition", "setting": "[3]", "result": "Active"}, {"measurement": "inhibition", "setting": "[7]", "result": "Active"}, {"measurement": "inhibition", "setting": "[8]", "result": "inactive"}, {"measurement": "inhibition", "setting": "[9]", "result": "Active"}, {"measurement": "inhibition", "setting": "[10]", "result": "inactive"}]}]}
